Assay results as given in ChEMBL document CHEMBL4706476, “Novel Tetrahydropyrido[4,3-d]pyrimidines as Potent Inhibitors of Chaperone Heat Shock Protein 90” (J Med Chem, 2016).
≈ marks a conversion by molar mass, not a printed value.

Key:
HCT-116 = test: cells; details: Homo sapiens, HCT-116, 72 h
Description: Antiproliferative activity against human HCT-116 cells assessed as reduction in cell viability incubated for 72 hrs by MTT assay

Endoplasmin = Endoplasmin (Homo sapiens, UniProt P14625); test: Displacement of FITC-geldanamycin from N-terminal GRP94 (unknown origin) after 30 mins by fluorescence polarization competitive binding assay
Chain of Endoplasmin (P14625 whole entry): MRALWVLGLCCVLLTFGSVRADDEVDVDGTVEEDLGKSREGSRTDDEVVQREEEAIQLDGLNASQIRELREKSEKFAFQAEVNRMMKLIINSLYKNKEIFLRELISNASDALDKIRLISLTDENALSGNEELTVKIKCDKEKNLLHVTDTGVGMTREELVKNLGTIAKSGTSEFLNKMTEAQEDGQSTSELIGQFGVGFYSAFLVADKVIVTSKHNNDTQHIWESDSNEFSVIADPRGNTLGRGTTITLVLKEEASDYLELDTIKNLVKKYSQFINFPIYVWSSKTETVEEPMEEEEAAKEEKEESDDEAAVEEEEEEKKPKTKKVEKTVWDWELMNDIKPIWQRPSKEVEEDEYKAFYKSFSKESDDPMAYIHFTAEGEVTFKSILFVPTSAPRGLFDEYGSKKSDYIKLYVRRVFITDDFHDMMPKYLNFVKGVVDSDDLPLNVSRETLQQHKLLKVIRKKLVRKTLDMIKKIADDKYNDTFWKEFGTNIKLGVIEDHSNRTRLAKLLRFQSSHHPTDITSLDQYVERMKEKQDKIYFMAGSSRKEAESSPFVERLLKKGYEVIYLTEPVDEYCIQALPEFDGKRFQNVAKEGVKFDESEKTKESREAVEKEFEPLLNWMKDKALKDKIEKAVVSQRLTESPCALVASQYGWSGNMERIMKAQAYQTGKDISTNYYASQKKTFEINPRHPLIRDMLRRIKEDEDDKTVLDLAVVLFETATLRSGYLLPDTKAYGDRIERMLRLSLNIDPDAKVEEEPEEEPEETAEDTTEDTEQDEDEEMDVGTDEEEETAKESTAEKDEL

[1] = biological target: Heat shock protein HSP 90-alpha (Homo sapiens, UniProt P07900); test: Displacement of FITC-geldanamycin from N-terminal HSP90alpha (unknown origin) after 30 mins by fluorescence polarization competitive binding assay
MCF7 = test: cells; details: Homo sapiens, MCF7, 72 h
[2] = Selectivity ratio of IC50 for inhibition of FITC-geldanamycin binding to N-terminal GRP94 (unknown origin) to IC50 for inhibition of FITC-geldanamycin binding to N-terminal HSP90alpha (unknown origin)
[3] = Distribution coefficient, logD of compound at pH 7.4; assay type: physicochemical; details: octanol/water
[4] = Permeability of the compound at pH 7.4 by PAMPA; assay type: ADME; details: read-out: permeability
[5] = Intrinsic aqueous solubility of the compound; assay type: physicochemical

SMILES	IC50 (HCT-116)	IC50 (Endoplasmin)	IC50 [1]	IC50 (MCF7)	Ratio IC50 [2]	logD [3]	Papp [4]	solubility [5]
CC(C)Oc1ncc2c(n1)CCN(C(=O)c1cc(C(C)C)c(O)cc1O)C2	1240 nM	518 nM	65 nM	960 nM	8	–	–	–
COCCOc1nc2c(c(OC)n1)CN(C(=O)c1cc(C(C)C)c(O)cc1O)CC2	250 nM	232 nM	30 nM	140 nM	7.7	2.56	75.8 ×10⁻⁶ cm/s	93.5 µg/mL (≈ 224 µM)
COCCOc1nc2c(c(NC3CC3)n1)CN(C(=O)c1cc(C(C)C)c(O)cc1O)CC2	230 nM	216 nM	19 nM	160 nM	11.4	2.45	56.4 ×10⁻⁶ cm/s	157 µg/mL (≈ 355 µM)
CCCNc1nc(OCCOC)nc2c1CN(C(=O)c1cc(C(C)C)c(O)cc1O)CC2	400 nM	796 nM	32 nM	350 nM	24.9	2.92	78.7 ×10⁻⁶ cm/s	114 µg/mL (≈ 257 µM)
CCCCN(CCCC)c1ncc2c(n1)CCN(C(=O)c1cc(C(C)C)c(O)cc1O)C2	1290 nM	–	343 nM	1120 nM	–	–	–	–
CC(C)c1cc(C(=O)N2CCc3nc(N4CCCCC4)ncc3C2)c(O)cc1O	1550 nM	–	172 nM	4460 nM	–	–	–	–
CC(C)c1cc(C(=O)N2CCc3nc(OC4CCN(C)CC4)ncc3C2)c(O)cc1O	1700 nM	–	76 nM	1790 nM	–	–	–	–
CC(C)c1cc(C(=O)N2CCc3nc(OCCN4CCOCC4)ncc3C2)c(O)cc1O	1060 nM	–	28 nM	1230 nM	–	1.48	30.2 ×10⁻⁶ cm/s	140 µg/mL (≈ 316 µM)
COCCOc1nc2c(c(OC(C)C)n1)CN(C(=O)c1cc(C(C)C)c(O)cc1O)CC2	740 nM	1320 nM	58 nM	250 nM	22.7	3.84	79.4 ×10⁻⁶ cm/s	40.2 µg/mL (≈ 90.2 µM)
Cc1ncc2c(n1)CN(C(=O)c1cc(Cl)c(O)cc1O)C2	10700 nM	–	474 nM	5480 nM	–	–	–	–
COCCOc1nc2c(c(N(C)C)n1)CN(C(=O)c1cc(C(C)C)c(O)cc1O)CC2	260 nM	195 nM	16 nM	330 nM	12.2	2.35	83 ×10⁻⁶ cm/s	153 µg/mL (≈ 355 µM)
CCNc1ncc2c(n1)CCN(C(=O)c1cc(C(C)C)c(O)cc1O)C2	1560 nM	–	167 nM	1580 nM	–	–	–	–
CC(C)c1cc(C(=O)N2CCc3nc(N(C)C)ncc3C2)c(O)cc1O	1020 nM	–	164 nM	1390 nM	–	–	–	–
CC(C)c1cc(C(=O)N2CCc3nc(OCCCN(C)C)ncc3C2)c(O)cc1O	920 nM	–	36 nM	2370 nM	–	1.09	4.15 ×10⁻⁶ cm/s	156 µg/mL (≈ 375 µM)
Cc1ncc2c(n1)CN(C(=O)c1cc(C(C)C)c(O)cc1O)C2	1630 nM	50 nM	38 nM	2140 nM	1.3	–	27 ×10⁻⁶ cm/s	–
CC(C)c1cc(C(=O)N2CCc3nc(OC4CCCC4)ncc3C2)c(O)cc1O	1720 nM	–	71 nM	1190 nM	–	–	–	–
CCN(CC)c1ncc2c(n1)CCN(C(=O)c1cc(C(C)C)c(O)cc1O)C2	4420 nM	–	201 nM	2160 nM	–	–	–	–
Cc1ncc2c(n1)CCN(C(=O)c1cc(Br)c(O)cc1O)C2	1530 nM	–	132 nM	1730 nM	–	–	–	–
CCCOc1ncc2c(n1)CCN(C(=O)c1cc(C(C)C)c(O)cc1O)C2	1080 nM	498 nM	60 nM	1340 nM	8.3	–	–	–
CCCN(CCC)c1ncc2c(n1)CCN(C(=O)c1cc(C(C)C)c(O)cc1O)C2	5700 nM	–	370 nM	3090 nM	–	–	–	–
CC(=O)N1CCN(c2ncc3c(n2)CCN(C(=O)c2cc(C(C)C)c(O)cc2O)C3)CC1	1600 nM	–	270 nM	3620 nM	–	–	–	–
CCN(CC)CCOc1ncc2c(n1)CCN(C(=O)c1cc(C(C)C)c(O)cc1O)C2	890 nM	217 nM	32 nM	2900 nM	6.8	1.17	25.7 ×10⁻⁶ cm/s	151 µg/mL (≈ 353 µM)
CCN(CC)c1nc(OCCOC)nc2c1CN(C(=O)c1cc(C(C)C)c(O)cc1O)CC2	3570 nM	1100 nM	102 nM	2890 nM	10.8	3.08	107 ×10⁻⁶ cm/s	95.9 µg/mL (≈ 209 µM)

SMILES	IC50 (HCT-116)	IC50 (Endoplasmin)	IC50 [1]	IC50 (MCF7)	Ratio IC50 [2]	logD [3]	Papp [4]	solubility [5]
CC(C)c1cc(C(=O)N2CCc3nc(N4CCOCC4)ncc3C2)c(O)cc1O	1470 nM	–	110 nM	1820 nM	–	–	–	–
CC(C)c1cc(C(=O)N2CCc3nc(OC4CCOCC4)ncc3C2)c(O)cc1O	600 nM	–	56 nM	820 nM	–	–	–	–
CC(C)c1cc(C(=O)N2CCc3nc(N4CCN(C)CC4)ncc3C2)c(O)cc1O	1710 nM	–	271 nM	2180 nM	–	–	–	–
Cc1ncc2c(n1)CCN(C(=O)c1cc(C(C)C)c(O)cc1O)C2	1150 nM	245 nM	26 nM	1480 nM	9.4	–	33.3 ×10⁻⁶ cm/s	–
CC(C)Nc1ncc2c(n1)CCN(C(=O)c1cc(C(C)C)c(O)cc1O)C2	2430 nM	–	222 nM	2680 nM	–	–	–	–
CC(C)c1cc(C(=O)N2CCc3nc(OCCN4CCCCC4)ncc3C2)c(O)cc1O	780 nM	–	30 nM	2330 nM	–	1.21	20.5 ×10⁻⁶ cm/s	175 µg/mL (≈ 396 µM)
CCN1CCN(c2ncc3c(n2)CCN(C(=O)c2cc(C(C)C)c(O)cc2O)C3)CC1	1650 nM	–	191 nM	1430 nM	–	–	–	–
CCOc1ncc2c(n1)CCN(C(=O)c1cc(C(C)C)c(O)cc1O)C2	760 nM	561 nM	56 nM	620 nM	10	2.95	72.4 ×10⁻⁶ cm/s	66 µg/mL (≈ 185 µM)
CCCNc1ncc2c(n1)CCN(C(=O)c1cc(C(C)C)c(O)cc1O)C2	2340 nM	–	238 nM	2370 nM	–	–	–	–
CC(C)c1cc(C(=O)N2CCc3nc(OC4CCCCC4)ncc3C2)c(O)cc1O	2780 nM	–	103 nM	1870 nM	–	–	–	–
CCCCOc1ncc2c(n1)CCN(C(=O)c1cc(C(C)C)c(O)cc1O)C2	1270 nM	670 nM	88 nM	880 nM	7.6	–	–	–
CC(C)c1cc(C(=O)N2CCc3nc(OCCN4CCCC4)ncc3C2)c(O)cc1O	980 nM	–	29 nM	1930 nM	–	1.12	3.06 ×10⁻⁶ cm/s	146 µg/mL (≈ 341 µM)
CNc1nc(OCCOC)nc2c1CN(C(=O)c1cc(C(C)C)c(O)cc1O)CC2	270 nM	196 nM	17 nM	290 nM	11.5	2.21	57.5 ×10⁻⁶ cm/s	178 µg/mL (≈ 427 µM)
COCCOc1nc2c(c(NC(C)C)n1)CN(C(=O)c1cc(C(C)C)c(O)cc1O)CC2	790 nM	787 nM	30 nM	250 nM	26.2	2.98	62.4 ×10⁻⁶ cm/s	137 µg/mL (≈ 309 µM)
CC(C)c1cc(C(=O)N2CCc3nc(N4CCCC4)ncc3C2)c(O)cc1O	1140 nM	–	113 nM	4550 nM	–	–	–	–
COc1ncc2c(n1)CCN(C(=O)c1cc(C(C)C)c(O)cc1O)C2	1160 nM	498 nM	75 nM	630 nM	6.6	–	–	–
Cc1ncc2c(n1)CCN(C(=O)c1cc(Cl)c(O)cc1O)C2	–	–	101 nM	–	–	–	–	–
CNc1ncc2c(n1)CCN(C(=O)c1cc(C(C)C)c(O)cc1O)C2	740 nM	–	113 nM	1250 nM	–	–	–	–
CCOc1nc(OCCOC)nc2c1CN(C(=O)c1cc(C(C)C)c(O)cc1O)CC2	320 nM	608 nM	26 nM	180 nM	23.4	2.74	77.3 ×10⁻⁶ cm/s	86.1 µg/mL (≈ 200 µM)
Cc1ncc2c(n1)CN(C(=O)c1cc(Br)c(O)cc1O)C2	1550 nM	–	262 nM	3720 nM	–	–	–	–
CC(C)COc1ncc2c(n1)CCN(C(=O)c1cc(C(C)C)c(O)cc1O)C2	1230 nM	706 nM	65 nM	1330 nM	10.9	–	–	–
CC(C)c1cc(C(=O)N2CCc3nc(OCCN(C)C)ncc3C2)c(O)cc1O	2380 nM	290 nM	30 nM	1580 nM	9.7	1.04	3.25 ×10⁻⁶ cm/s	148 µg/mL (≈ 370 µM)
